Experimental data from paper PMC11233931, “Remodeling tumor‐associated macrophage for anti‐cancer effects by rational design of irreversible inhibition of mitogen‐activated protein kinase‐activated protein kinase 2” (MedComm, 2024).

Tests used:
Experiment in all cases: Eurofins kinase selectivity profile against 380 other human recombinant kinases (Table S2)
Format in all cases: biochemical
[1] = molecular target: T1, 380 human recombinant protein kinases (Homo sapiens, UniProt P10721); settings: cKit(h), read-out: Inhibition rate
T1 construct: purchased Eurofins (Celle Lévescault)
Procedure, shortened: (§1)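 Outsourced panel: 380 human recombinant kinases; inhibitor tested at various concentrations; purpose: MK2 selectivity check.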

[2] = molecular target: T2, 380 human recombinant protein kinases (Homo sapiens, UniProt Q04759); settings: PKCθ(h), read-out: Inhibition rate
T2 construct: purchased Eurofins (Celle Lévescault)
Procedure, shortened: as §1

[3] = molecular target: T3, 380 human recombinant protein kinases (Homo sapiens, UniProt Q13043); settings: MST1(h), read-out: Inhibition rate
T3 construct: purchased Eurofins (Celle Lévescault)
T3 sequence (Q13043 1-487): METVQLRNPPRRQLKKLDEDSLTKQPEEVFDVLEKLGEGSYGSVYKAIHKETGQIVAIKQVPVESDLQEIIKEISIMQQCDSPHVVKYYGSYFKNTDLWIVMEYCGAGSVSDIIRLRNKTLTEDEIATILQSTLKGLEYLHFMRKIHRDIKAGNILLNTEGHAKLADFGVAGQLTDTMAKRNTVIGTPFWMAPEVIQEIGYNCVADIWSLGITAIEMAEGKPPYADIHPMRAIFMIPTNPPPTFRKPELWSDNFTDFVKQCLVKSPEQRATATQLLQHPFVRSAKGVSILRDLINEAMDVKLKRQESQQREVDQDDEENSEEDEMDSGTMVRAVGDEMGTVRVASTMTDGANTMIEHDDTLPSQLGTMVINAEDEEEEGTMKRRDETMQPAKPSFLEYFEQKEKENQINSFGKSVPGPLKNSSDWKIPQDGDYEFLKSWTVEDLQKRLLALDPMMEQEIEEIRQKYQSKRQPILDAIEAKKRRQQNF
Procedure, shortened: as §1

[4] = molecular target: T4, 380 human recombinant protein kinases (Homo sapiens, UniProt Q14004); settings: CDK13/cyclinK(h), read-out: Inhibition rate
T4 construct: purchased Eurofins (Celle Lévescault)
Procedure, shortened: as §1

[5] = molecular target: T5, 380 human recombinant protein kinases (Homo sapiens, UniProt Q8TDC3); settings: BrSK1(h), read-out: Inhibition rate
T5 construct: purchased Eurofins (Celle Lévescault)
T5 sequence (Q8TDC3 1-778): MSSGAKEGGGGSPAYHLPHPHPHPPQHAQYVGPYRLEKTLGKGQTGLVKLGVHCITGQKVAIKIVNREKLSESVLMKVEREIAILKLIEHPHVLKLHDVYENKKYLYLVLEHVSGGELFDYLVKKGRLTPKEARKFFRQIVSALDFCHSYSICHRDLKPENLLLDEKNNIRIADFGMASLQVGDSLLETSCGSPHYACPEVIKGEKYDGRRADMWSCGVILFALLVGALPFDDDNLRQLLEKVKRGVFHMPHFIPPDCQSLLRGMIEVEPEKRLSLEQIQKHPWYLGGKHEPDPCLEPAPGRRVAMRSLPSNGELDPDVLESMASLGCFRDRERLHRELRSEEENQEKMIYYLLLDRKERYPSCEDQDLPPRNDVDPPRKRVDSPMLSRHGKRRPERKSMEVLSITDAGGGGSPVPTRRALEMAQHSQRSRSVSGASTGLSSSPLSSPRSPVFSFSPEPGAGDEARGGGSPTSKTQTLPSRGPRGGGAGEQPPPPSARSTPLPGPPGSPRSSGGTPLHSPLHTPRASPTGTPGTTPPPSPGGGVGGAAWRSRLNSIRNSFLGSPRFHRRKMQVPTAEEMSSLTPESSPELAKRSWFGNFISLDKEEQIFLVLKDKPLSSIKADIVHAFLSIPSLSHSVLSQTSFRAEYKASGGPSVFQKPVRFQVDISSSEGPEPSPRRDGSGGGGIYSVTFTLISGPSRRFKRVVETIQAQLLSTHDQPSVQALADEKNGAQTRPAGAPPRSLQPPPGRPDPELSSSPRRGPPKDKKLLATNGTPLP
Procedure, shortened: as §1

[6] = molecular target: T6, 380 human recombinant protein kinases (Homo sapiens, UniProt Q96L34); settings: MARK4(h), read-out: Inhibition rate
T6 construct: purchased Eurofins (Celle Lévescault)
T6 sequence (Q96L34 1-752): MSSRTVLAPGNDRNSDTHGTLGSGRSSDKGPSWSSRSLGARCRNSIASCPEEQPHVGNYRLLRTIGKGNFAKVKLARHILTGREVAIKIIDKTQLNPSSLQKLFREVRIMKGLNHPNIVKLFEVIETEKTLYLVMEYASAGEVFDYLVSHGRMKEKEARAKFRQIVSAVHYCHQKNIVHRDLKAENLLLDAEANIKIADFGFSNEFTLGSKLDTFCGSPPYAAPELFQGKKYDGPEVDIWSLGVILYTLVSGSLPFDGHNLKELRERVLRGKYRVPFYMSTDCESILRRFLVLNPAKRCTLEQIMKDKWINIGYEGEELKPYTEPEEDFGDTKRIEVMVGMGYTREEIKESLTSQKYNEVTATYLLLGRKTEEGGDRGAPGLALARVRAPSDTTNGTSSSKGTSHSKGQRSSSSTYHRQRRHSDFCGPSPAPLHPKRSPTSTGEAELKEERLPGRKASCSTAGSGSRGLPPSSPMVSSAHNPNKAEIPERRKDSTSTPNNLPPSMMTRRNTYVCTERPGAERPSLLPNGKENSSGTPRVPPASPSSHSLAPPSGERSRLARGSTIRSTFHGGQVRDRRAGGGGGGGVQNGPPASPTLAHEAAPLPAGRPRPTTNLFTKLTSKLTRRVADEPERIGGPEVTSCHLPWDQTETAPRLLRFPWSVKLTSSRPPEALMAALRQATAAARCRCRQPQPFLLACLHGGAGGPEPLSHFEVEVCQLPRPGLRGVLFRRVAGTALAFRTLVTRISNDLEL
Procedure, shortened: as §1

[7] = molecular target: T7, 380 human recombinant protein kinases (Homo sapiens, UniProt Q9UM73); settings: ALK(h), read-out: Inhibition rate
T7 construct: purchased Eurofins (Celle Lévescault)
Procedure, shortened: as §1

T2 sequence (Q04759 whole entry): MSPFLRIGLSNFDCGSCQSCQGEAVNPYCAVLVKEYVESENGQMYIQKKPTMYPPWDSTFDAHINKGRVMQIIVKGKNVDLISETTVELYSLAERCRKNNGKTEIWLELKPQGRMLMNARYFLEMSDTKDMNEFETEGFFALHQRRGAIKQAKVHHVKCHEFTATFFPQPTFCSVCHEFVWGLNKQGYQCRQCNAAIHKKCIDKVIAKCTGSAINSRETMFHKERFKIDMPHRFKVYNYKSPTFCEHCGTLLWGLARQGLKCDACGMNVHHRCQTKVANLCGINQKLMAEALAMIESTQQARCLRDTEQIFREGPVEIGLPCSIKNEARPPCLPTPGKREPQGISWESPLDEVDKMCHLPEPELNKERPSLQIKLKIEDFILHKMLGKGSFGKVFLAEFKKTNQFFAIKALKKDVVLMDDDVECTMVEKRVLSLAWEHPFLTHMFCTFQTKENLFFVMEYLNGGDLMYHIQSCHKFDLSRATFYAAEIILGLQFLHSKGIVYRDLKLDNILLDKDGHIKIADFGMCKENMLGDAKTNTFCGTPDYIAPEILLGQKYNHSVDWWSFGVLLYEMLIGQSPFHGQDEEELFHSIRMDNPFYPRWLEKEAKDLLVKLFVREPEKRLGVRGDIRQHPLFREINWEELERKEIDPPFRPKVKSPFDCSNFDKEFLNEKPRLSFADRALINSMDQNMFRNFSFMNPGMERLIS
T4 sequence (Q14004 whole entry): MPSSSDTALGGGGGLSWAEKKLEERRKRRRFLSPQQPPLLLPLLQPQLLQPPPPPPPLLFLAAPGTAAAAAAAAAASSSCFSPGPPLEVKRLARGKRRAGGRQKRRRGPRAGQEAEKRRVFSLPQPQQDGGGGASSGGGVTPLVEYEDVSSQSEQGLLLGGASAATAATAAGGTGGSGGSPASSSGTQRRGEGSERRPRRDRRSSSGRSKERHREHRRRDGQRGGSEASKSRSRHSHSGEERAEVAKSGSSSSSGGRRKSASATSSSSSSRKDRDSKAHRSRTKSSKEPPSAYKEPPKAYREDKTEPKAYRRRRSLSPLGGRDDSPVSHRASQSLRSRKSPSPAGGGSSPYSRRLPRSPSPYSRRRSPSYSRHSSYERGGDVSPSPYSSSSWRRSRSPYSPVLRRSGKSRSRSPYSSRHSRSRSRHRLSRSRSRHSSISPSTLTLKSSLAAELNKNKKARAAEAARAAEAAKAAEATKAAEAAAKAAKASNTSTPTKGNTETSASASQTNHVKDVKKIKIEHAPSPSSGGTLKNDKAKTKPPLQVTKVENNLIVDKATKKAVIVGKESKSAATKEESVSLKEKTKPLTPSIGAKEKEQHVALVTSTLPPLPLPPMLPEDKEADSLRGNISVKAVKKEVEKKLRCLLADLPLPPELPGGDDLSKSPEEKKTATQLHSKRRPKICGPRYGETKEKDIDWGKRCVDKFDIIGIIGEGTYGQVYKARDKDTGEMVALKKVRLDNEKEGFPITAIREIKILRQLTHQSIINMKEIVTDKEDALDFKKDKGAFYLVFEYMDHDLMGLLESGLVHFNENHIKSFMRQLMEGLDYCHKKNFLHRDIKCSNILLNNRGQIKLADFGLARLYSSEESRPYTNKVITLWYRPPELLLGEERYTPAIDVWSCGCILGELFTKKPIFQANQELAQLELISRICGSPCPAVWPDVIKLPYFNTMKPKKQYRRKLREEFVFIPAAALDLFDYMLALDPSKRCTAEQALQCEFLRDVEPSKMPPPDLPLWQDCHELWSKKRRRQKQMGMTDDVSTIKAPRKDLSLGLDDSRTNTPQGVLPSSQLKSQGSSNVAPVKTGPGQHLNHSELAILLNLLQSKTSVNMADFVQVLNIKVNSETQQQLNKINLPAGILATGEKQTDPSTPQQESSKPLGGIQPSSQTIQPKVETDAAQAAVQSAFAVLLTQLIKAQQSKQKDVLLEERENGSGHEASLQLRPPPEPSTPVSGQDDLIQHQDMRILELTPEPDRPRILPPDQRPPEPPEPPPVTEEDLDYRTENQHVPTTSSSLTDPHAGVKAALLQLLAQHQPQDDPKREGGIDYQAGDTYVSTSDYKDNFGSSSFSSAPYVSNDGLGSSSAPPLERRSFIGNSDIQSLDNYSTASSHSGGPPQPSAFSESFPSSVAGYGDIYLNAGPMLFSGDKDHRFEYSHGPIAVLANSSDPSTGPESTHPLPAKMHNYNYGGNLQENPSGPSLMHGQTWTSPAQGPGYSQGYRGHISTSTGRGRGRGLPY
T1 sequence (P10721 26-976): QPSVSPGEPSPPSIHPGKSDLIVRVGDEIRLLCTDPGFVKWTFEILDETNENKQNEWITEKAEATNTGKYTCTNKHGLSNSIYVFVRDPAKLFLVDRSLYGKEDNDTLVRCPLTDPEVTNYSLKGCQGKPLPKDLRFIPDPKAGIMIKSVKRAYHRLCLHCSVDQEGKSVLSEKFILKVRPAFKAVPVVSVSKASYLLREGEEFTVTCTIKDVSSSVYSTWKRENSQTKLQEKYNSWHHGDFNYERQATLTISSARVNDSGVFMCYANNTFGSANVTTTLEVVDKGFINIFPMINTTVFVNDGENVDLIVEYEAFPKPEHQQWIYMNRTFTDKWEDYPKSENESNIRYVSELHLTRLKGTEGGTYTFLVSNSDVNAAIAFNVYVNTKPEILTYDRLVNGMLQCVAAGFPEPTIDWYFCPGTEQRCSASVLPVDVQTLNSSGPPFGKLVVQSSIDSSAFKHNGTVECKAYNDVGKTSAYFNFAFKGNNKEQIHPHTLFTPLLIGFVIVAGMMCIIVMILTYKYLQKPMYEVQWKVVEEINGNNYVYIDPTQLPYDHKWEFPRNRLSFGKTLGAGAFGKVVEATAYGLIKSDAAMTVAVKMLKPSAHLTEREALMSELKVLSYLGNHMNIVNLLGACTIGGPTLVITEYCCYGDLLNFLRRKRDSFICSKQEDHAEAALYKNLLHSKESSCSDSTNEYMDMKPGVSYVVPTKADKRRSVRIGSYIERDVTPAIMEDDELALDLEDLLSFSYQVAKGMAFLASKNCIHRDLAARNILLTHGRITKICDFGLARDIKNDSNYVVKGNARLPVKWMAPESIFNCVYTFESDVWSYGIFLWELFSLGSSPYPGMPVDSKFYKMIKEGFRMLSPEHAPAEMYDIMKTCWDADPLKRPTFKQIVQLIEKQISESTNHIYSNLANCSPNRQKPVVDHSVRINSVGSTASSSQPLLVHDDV
T7 sequence (Q9UM73 19-1620): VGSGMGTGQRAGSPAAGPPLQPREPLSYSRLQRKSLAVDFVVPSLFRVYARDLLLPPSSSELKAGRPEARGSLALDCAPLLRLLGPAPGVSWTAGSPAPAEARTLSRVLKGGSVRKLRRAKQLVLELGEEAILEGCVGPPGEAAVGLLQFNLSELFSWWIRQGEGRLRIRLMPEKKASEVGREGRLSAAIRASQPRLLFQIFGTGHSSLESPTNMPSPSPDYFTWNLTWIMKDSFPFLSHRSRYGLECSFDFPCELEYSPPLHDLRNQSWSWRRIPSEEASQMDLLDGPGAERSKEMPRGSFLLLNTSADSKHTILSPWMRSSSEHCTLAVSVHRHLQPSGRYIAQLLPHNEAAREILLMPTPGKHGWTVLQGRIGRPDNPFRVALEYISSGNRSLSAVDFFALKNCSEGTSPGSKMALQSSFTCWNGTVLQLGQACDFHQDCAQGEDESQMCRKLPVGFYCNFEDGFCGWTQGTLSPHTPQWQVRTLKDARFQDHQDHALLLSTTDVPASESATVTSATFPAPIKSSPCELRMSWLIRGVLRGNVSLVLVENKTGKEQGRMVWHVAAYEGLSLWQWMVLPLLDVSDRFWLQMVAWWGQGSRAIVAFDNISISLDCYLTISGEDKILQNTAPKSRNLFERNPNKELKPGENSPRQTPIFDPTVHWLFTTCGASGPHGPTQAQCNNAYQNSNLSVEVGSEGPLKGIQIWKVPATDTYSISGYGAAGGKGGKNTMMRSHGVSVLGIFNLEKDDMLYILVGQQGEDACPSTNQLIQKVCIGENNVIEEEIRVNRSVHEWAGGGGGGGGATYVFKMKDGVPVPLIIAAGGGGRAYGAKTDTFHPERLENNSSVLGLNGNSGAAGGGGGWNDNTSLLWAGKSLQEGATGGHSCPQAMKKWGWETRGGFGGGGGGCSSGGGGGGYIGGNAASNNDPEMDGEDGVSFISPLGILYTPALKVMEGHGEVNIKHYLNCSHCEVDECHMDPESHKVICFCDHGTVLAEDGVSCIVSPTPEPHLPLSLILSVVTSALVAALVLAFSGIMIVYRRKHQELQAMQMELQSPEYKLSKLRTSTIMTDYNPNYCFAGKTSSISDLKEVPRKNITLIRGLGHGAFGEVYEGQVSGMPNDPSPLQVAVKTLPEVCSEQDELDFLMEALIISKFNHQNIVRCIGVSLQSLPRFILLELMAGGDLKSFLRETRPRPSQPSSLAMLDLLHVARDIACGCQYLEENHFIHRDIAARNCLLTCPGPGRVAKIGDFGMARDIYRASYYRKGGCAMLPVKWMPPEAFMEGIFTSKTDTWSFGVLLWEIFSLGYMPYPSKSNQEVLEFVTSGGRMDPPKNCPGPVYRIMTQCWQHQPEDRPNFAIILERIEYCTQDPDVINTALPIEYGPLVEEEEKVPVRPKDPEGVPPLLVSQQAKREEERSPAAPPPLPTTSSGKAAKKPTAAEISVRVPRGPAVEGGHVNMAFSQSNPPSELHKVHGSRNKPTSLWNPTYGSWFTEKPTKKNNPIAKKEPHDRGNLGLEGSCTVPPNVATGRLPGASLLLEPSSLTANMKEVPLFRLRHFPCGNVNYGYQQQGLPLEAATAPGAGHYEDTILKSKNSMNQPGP

## C=CC(=O)Nc1cc(-c2cc(-c3cc4c([nH]3)CCNC4=O)ccn2)ccc1OC(F)(F)F [compound 11]
[1]; 10 nM
  inhibition at 0.01 µM: 1%
[1]; 100 nM
  inhibition at 0.1 µM: -14%
[1]; 1000 nM
  inhibition at 1 µM: 9%
[2]; 10 nM
  inhibition at 0.01 µM: 6%
[2]; 100 nM
  inhibition at 0.1 µM: 0%
[2]; 1000 nM
  inhibition at 1 µM: 4%
[3]; 10 nM
  inhibition at 0.01 µM: -1%
[3]; 100 nM
  inhibition at 0.1 µM: -9%
[3]; 1000 nM
  inhibition at 1 µM: 0%
[4]; 10 nM
  inhibition at 0.01 µM: 1%
[4]; 100 nM
  inhibition at 0.1 µM: 7%
[4]; 1000 nM
  inhibition at 1 µM: 9%
[5]; 10 nM
  inhibition at 0.01 µM: -7%
[5]; 100 nM
  inhibition at 0.1 µM: -3%
[5]; 1000 nM
  inhibition at 1 µM: 17%
[6]; 10 nM
  inhibition at 0.01 µM: -10%
[6]; 100 nM
  inhibition at 0.1 µM: -2%
[6]; 1000 nM
  inhibition at 1 µM: -4%
[7]; 10 nM
  inhibition at 0.01 µM: 6%
[7]; 100 nM
  inhibition at 0.1 µM: 6%
[7]; 1000 nM
  inhibition at 1 µM: 16%
